Source: ChEMBL document CHEMBL1201861, “Genomics of Drug Sensitity in Cancer screening data, Wellcome Trust Sanger Institute”

Tests used:
HOS = assay: cells; type: functional, cell-based; conditions: Homo sapiens;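 note: growth inhibition of human HOS cells, read out with a cell viability assay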
Description: SANGER: Inhibition of human HOS cell growth in a cell viability assay.

VMRC-RCZ = assay: cells; type: functional, cell-based; conditions: Homo sapiens
Description: SANGER: Inhibition of human VMRC-RCZ cell growth in a cell viability assay.

BFTC-909 = assay: cells; type: functional, cell-based; conditions: Homo sapiens
Description: SANGER: Inhibition of human BFTC-909 cell growth in a cell viability assay.

HuP-T4 = assay: cells; type: functional, cell-based; conditions: Homo sapiens;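 note: cell viability assay measuring how much HuP-T4 cell growth is inhibited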
Description: SANGER: Inhibition of human HuP-T4 cell growth in a cell viability assay.

NCI-H2170 = assay: cells; type: functional, cell-based; conditions: Homo sapiens;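 note: cell viability assay measuring growth inhibition of human NCI-H2170 cancer cells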
Description: SANGER: Inhibition of human NCI-H2170 cell growth in a cell viability assay.

ACHN = assay: cells; type: functional, cell-based; conditions: Homo sapiens;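 note: cell viability read-out used to gauge how strongly growth of human ACHN cells is suppressed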
Description: SANGER: Inhibition of human ACHN cell growth in a cell viability assay.

COLO-741 = assay: cells; type: functional, cell-based; conditions: Homo sapiens
Description: SANGER: Inhibition of human COLO-741 cell growth in a cell viability assay.

TCC-SUP = assay: cells; type: functional, cell-based; conditions: Homo sapiens;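 note: growth inhibition of TCC-SUP cells, read out with a cell viability assay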
Description: SANGER: Inhibition of human TCCSUP cell growth in a cell viability assay.

HPAF-II = assay: cells; type: functional, cell-based; conditions: Homo sapiens;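 note: growth inhibition of HPAF-II cells, read out with a cell viability assay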
Description: SANGER: Inhibition of human HPAF-II cell growth in a cell viability assay.

CP50-MEL-B = assay: cells; type: functional, cell-based; conditions: Homo sapiens;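 note: growth inhibition of the human cell line, measured with a cell viability read-out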
Description: SANGER: Inhibition of human CP50-MEL-B cell growth in a cell viability assay.

A673 = assay: cells; type: functional, cell-based; conditions: Homo sapiens;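 note: growth inhibition of human A673 cells, read out through a cell viability assay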
Description: SANGER: Inhibition of human A673 cell growth in a cell viability assay.

NCI-H1755 = assay: cells; type: functional, cell-based; conditions: Homo sapiens;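 note: cell viability readout used to measure growth inhibition of NCI-H1755 cells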
Description: SANGER: Inhibition of human NCI-H1755 cell growth in a cell viability assay.

KYSE-270 = assay: cells; type: functional, cell-based; conditions: Homo sapiens;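 note: cell growth inhibition measured with a viability assay in the human KYSE-270 line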
Description: SANGER: Inhibition of human KYSE-270 cell growth in a cell viability assay.

UMC-11 = assay: cells; type: functional, cell-based; conditions: Homo sapiens;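 note: growth inhibition of UMC-11 cells, read out with a cell viability assay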
Description: SANGER: Inhibition of human UMC-11 cell growth in a cell viability assay.

UACC-893 = assay: cells; type: functional, cell-based; conditions: Homo sapiens
Description: SANGER: Inhibition of human UACC-893 cell growth in a cell viability assay.

MKN-7 = assay: cells; type: functional, cell-based; conditions: Homo sapiens;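 note: growth inhibition of MKN-7 cells, read out with a cell viability assay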
Description: SANGER: Inhibition of human MKN7 cell growth in a cell viability assay.

T-24 = assay: cells; type: functional, cell-based; conditions: Homo sapiens;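 note: growth inhibition of T-24 cells, read out with a cell viability assay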
Description: SANGER: Inhibition of human T-24 cell growth in a cell viability assay.

KYSE-70 cell line = assay: cells; type: functional, cell-based; conditions: Homo sapiens;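 note: cell viability assay read-out, with IC50 expressing suppression of KYSE-70 cell growth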
Description: SANGER: Inhibition of human KYSE-70 cell growth in a cell viability assay.

RMG-I = assay: cells; type: functional, cell-based; conditions: Homo sapiens;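 note: growth inhibition of human RMG-I cells, read out with a cell viability assay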
Description: SANGER: Inhibition of human RMG-I cell growth in a cell viability assay.

KP-N-YN = assay: cells; type: functional, cell-based; conditions: Homo sapiens;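 note: growth inhibition of KP-N-YN cells, read out with a cell viability assay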
Description: SANGER: Inhibition of human KP-N-YN cell growth in a cell viability assay.

NCI-H661 = assay: cells; type: functional, cell-based; conditions: Homo sapiens;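 note: cell viability assay read-out, IC50 being the concentration that inhibits growth of the cells by half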
Description: SANGER: Inhibition of human NCI-H661 cell growth in a cell viability assay.

Huh-7 = assay: cells; type: functional, cell-based; conditions: Homo sapiens;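 note: HuH-7 cell growth inhibition, read out with a cell viability assay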
Description: SANGER: Inhibition of human HuH-7 cell growth in a cell viability assay.

KYSE-140 = assay: cells; type: functional, cell-based; conditions: Homo sapiens;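 note: cell viability assay measuring growth inhibition in human KYSE-140 cells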
Description: SANGER: Inhibition of human KYSE-140 cell growth in a cell viability assay.

KYSE-150 cell line = assay: cells; type: functional, cell-based; conditions: Homo sapiens;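 note: growth inhibition of human KYSE-150 cells, read out with a cell viability assay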
Description: SANGER: Inhibition of human KYSE-150 cell growth in a cell viability assay.

OE33 = assay: cells; type: functional, cell-based; conditions: Homo sapiens;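 note: growth inhibition of human OE33 cells, measured by a cell viability assay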
Description: SANGER: Inhibition of human OE33 cell growth in a cell viability assay.

HT-29 = assay: cells; type: functional, cell-based; conditions: Homo sapiens;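 note: growth inhibition of human HT-29 cells, read out by a cell viability assay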
Description: SANGER: Inhibition of human HT-29 cell growth in a cell viability assay.

PA-1 = assay: cells; type: functional, cell-based; conditions: Homo sapiens;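 note: IC50 for suppression of PA-1 cell proliferation, determined with a cell viability read-out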
Description: SANGER: Inhibition of human PA-1 cell growth in a cell viability assay.

UO-31 = assay: cells; type: functional, cell-based; conditions: Homo sapiens
Description: SANGER: Inhibition of human U031 cell growth in a cell viability assay.

EW-22 = assay: cells; type: functional, cell-based; conditions: Homo sapiens;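 note: growth inhibition of the EW-22 cell line, measured with a cell viability readout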
Description: SANGER: Inhibition of human EW-22 cell growth in a cell viability assay.

COR-L105 = assay: cells; type: functional, cell-based; conditions: Homo sapiens
Description: SANGER: Inhibition of human COR-L105 cell growth in a cell viability assay.

SJRH30 = assay: cells; type: functional, cell-based; conditions: Homo sapiens;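 note: growth inhibition of human SJRH30 cells, read out with a cell viability assay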
Description: SANGER: Inhibition of human SJRH30 cell growth in a cell viability assay.

SW13 = assay: cells; type: functional, cell-based; conditions: Homo sapiens;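 note: IC50 is inhibition of SW13 cell growth, read out with a cell viability assay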
Description: SANGER: Inhibition of human SW13 cell growth in a cell viability assay.

U-118-MG = assay: cells; type: functional, cell-based; conditions: Homo sapiens
Description: SANGER: Inhibition of human U-118-MG cell growth in a cell viability assay.

IGR-1 = assay: cells; type: functional, cell-based; conditions: Homo sapiens;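 note: growth inhibition of human IGR-1 cells, read out with a cell viability assay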
Description: SANGER: Inhibition of human IGR-1 cell growth in a cell viability assay.

DMS-273 = assay: cells; type: functional, cell-based; conditions: Homo sapiens
Description: SANGER: Inhibition of human DMS-273 cell growth in a cell viability assay.

KOSC-2 = assay: cells; type: functional, cell-based; conditions: Homo sapiens;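 note: growth inhibition of KOSC-2 cells, read out by a cell viability assay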
Description: SANGER: Inhibition of human KOSC-2 cell growth in a cell viability assay.

HCC 2998 = assay: cells; type: functional, cell-based; conditions: Homo sapiens;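 note: growth inhibition of human HCC2998 cells, measured with a cell viability read-out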
Description: SANGER: Inhibition of human HCC2998 cell growth in a cell viability assay.

G-402 = assay: cells; type: functional, cell-based; conditions: Homo sapiens
Description: SANGER: Inhibition of human G-402 cell growth in a cell viability assay.

CAL-54 = assay: cells; type: functional, cell-based; conditions: Homo sapiens;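 note: growth inhibition of CAL-54 cells, read out by a viability measurement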
Description: SANGER: Inhibition of human CAL-54 cell growth in a cell viability assay.

CAL-51 = assay: cells; type: functional, cell-based; conditions: Homo sapiens;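 note: human CAL-51 cell line, growth inhibition read out via a cell viability assay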
Description: SANGER: Inhibition of human CAL-51 cell growth in a cell viability assay.

KU-19-19 = assay: cells; type: functional, cell-based; conditions: Homo sapiens
Description: SANGER: Inhibition of human KU-19-19 cell growth in a cell viability assay.

CHP-212 = assay: cells; type: functional, cell-based; conditions: Homo sapiens
Description: SANGER: Inhibition of human CHP-212 cell growth in a cell viability assay.

NCI-H1792 = assay: cells; type: functional, cell-based; conditions: Homo sapiens;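 note: growth inhibition of human NCI-H1792 cells, read out as cell viability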
Description: SANGER: Inhibition of human NCI-H1792 cell growth in a cell viability assay.

HEC-1 = assay: cells; type: functional, cell-based; conditions: Homo sapiens;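 note: growth inhibition of the cell line, read out with a cell viability assay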
Description: SANGER: Inhibition of human HEC-1 cell growth in a cell viability assay.

NCI-H2030 = assay: cells; type: functional, cell-based; conditions: Homo sapiens;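 note: growth inhibition of human NCI-H2030 cells, read out by a cell viability assay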
Description: SANGER: Inhibition of human NCI-H2030 cell growth in a cell viability assay.

CAL-12T = assay: cells; type: functional, cell-based, Homo sapiens; conditions: Homo sapiens, CAL-12T;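 note: growth inhibition of human CAL-12T cells, read out with a cell viability assay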
Description: SANGER: Inhibition of human CAL-12T cell growth in a cell viability assay.

NCI-H2228 = assay: cells; type: functional, cell-based; conditions: Homo sapiens;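 note: growth inhibition of human NCI-H2228 cells, read out by a cell viability assay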
Description: SANGER: Inhibition of human NCI-H2228 cell growth in a cell viability assay.

BFTC-905 = assay: cells; type: functional, cell-based; conditions: Homo sapiens
Description: SANGER: Inhibition of human BFTC-905 cell growth in a cell viability assay.

PANC-03-27 = assay: cells; type: functional, cell-based; conditions: Homo sapiens
Description: SANGER: Inhibition of human PANC-03-27 cell growth in a cell viability assay.

MHH-ES-1 = assay: cells; type: functional, cell-based; conditions: Homo sapiens
Description: SANGER: Inhibition of human MHH-ES-1 cell growth in a cell viability assay.

Calu-3 = assay: cells; type: functional, cell-based; conditions: Homo sapiens;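 note: growth inhibition of human Calu-3 cells, determined with a cell viability assay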
Description: SANGER: Inhibition of human Calu-3 cell growth in a cell viability assay.

NCI-H1522 = assay: cells; type: functional, cell-based; conditions: Homo sapiens;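 note: growth inhibition of NCI-H1522 cells, read out with a cell viability assay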
Description: SANGER: Inhibition of human NCI-H1522 cell growth in a cell viability assay.

TUR = assay: cells; type: functional, cell-based; conditions: Homo sapiens;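 note: growth inhibition of human TUR cells, read out with a cell viability assay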
Description: SANGER: Inhibition of human TUR cell growth in a cell viability assay.

NCI-H1963 = assay: cells; type: functional, cell-based; conditions: Homo sapiens;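 note: cell growth inhibition of the human line, determined with a cell viability assay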
Description: SANGER: Inhibition of human NCI-H1963 cell growth in a cell viability assay.

CPC-N = assay: cells; type: functional, cell-based; conditions: Homo sapiens;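 note: growth inhibition of CPC-N cells, with a cell viability assay as the readout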
Description: SANGER: Inhibition of human CPC-N cell growth in a cell viability assay.

NCI-H1436 = assay: cells; type: functional, cell-based; conditions: Homo sapiens;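 note: growth suppression of human NCI-H1436 cells, determined with a cell viability readout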
Description: SANGER: Inhibition of human NCI-H1436 cell growth in a cell viability assay.

KARPAS-422 = assay: cells; type: functional, cell-based; conditions: Homo sapiens
Description: SANGER: Inhibition of human KARPAS-422 cell growth in a cell viability assay.

DMS-153 = assay: cells; type: functional, cell-based; conditions: Homo sapiens
Description: SANGER: Inhibition of human DMS-153 cell growth in a cell viability assay.

WSU-NHL = assay: cells; type: functional, cell-based; conditions: Homo sapiens;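 note: growth inhibition of human WSU-NHL cells, read out with a cell viability assay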
Description: SANGER: Inhibition of human WSU-NHL cell growth in a cell viability assay.

ARH-77 = assay: cells; type: functional, cell-based; conditions: Homo sapiens;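 note: growth inhibition of ARH-77 cells, read out by a cell viability assay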
Description: SANGER: Inhibition of human ARH-77 cell growth in a cell viability assay.

K052 = assay: cells; type: functional, cell-based; conditions: Homo sapiens;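 note: Read-out from a cell viability assay, IC50 reflecting suppression of K052 cell growth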
Description: SANGER: Inhibition of human K052 cell growth in a cell viability assay.

L-540 = assay: cells; type: functional, cell-based; conditions: Homo sapiens;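 note: growth inhibition of the human L-540 cell line, read out with a viability assay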
Description: SANGER: Inhibition of human L-540 cell growth in a cell viability assay.

JIYOYE = assay: cells; type: functional, cell-based; conditions: Homo sapiens
Description: SANGER: Inhibition of human JiyoyeP-2003 cell growth in a cell viability assay.

NCCIT = assay: SANGER: Inhibition of human NCCIT cell growth in a cell viability assay.; type: functional, cell-based
EB-3 = assay: cells; type: functional, cell-based; conditions: Homo sapiens;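 note: human EB-3 cells, growth inhibition read out via a cell viability assay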
Description: SANGER: Inhibition of human EB-3 cell growth in a cell viability assay.

Cn1c(=O)n(-c2ccc(C(C)(C)C#N)cc2)c2c3cc(-c4cnc5ccccc5c4)ccc3ncc21 [DACTOLISIB]
IC50 (HOS): 21.1 nM
IC50 (VMRC-RCZ): 15.6 nM
IC50 (BFTC-909): 3.71 nM
IC50 (HuP-T4): 127 nM
IC50 (NCI-H2170): 115 nM
IC50 (ACHN): 357 nM
IC50 (COLO-741): 1500 nM
IC50 (TCC-SUP): 64.5 nM
IC50 (HPAF-II): 156 nM
IC50 (CP50-MEL-B): 77.4 nM
IC50 (A673): > 2000 nM
IC50 (NCI-H1755): 139 nM
IC50 (KYSE-270): 131 nM
IC50 (UMC-11): 458 nM
IC50 (UACC-893): 406 nM
IC50 (MKN-7): 124 nM
IC50 (T-24): 43.8 nM
IC50 (KYSE-70 cell line): 152 nM
IC50 (RMG-I): 468 nM
IC50 (KP-N-YN): > 2000 nM
IC50 (NCI-H661): 151 nM
IC50 (Huh-7): 18.4 nM
IC50 (KYSE-140): 50.6 nM
IC50 (KYSE-150 cell line): 25.9 nM
IC50 (OE33): 189 nM
IC50 (HT-29): > 2000 nM
IC50 (PA-1): 11.8 nM
IC50 (UO-31): 96.7 nM
IC50 (EW-22): 46.2 nM
IC50 (COR-L105): 15 nM
IC50 (SJRH30): 144 nM
IC50 (SW13): 66.5 nM
IC50 (U-118-MG): 134 nM
IC50 (IGR-1): 46.1 nM
IC50 (DMS-273): 60.9 nM
IC50 (KOSC-2): 70 nM
IC50 (HCC 2998): 118 nM
IC50 (G-402): 22.2 nM
IC50 (CAL-54): 238 nM
IC50 (CAL-51): 23.9 nM
IC50 (KU-19-19): 31.1 nM
IC50 (CHP-212): 74.9 nM
IC50 (NCI-H1792): 66.2 nM
IC50 (HEC-1): 67.5 nM
IC50 (NCI-H2030): 21.5 nM
IC50 (CAL-12T): 38.6 nM
IC50 (NCI-H2228): 88.3 nM
IC50 (BFTC-905): 60.7 nM
IC50 (PANC-03-27): 76.3 nM
IC50 (MHH-ES-1): 51.9 nM
IC50 (Calu-3): 72 nM

CCn1c(-c2nonc2N)nc2cnc(Oc3cccc(NC(=O)c4ccc(OCCN5CCOCC5)cc4)c3)cc21 [GSK-269962A]
IC50 (NCI-H1522): > 2500 nM
IC50 (TUR): > 2500 nM
IC50 (NCI-H1963): 1280 nM
IC50 (CPC-N): > 2500 nM
IC50 (NCI-H1436): > 2500 nM
IC50 (KARPAS-422): > 2500 nM
IC50 (DMS-153): > 2500 nM
IC50 (KP-N-YN): > 2500 nM
IC50 (WSU-NHL): > 2500 nM
IC50 (ARH-77): > 2500 nM
IC50 (K052): 753 nM
IC50 (EW-22): > 2500 nM
IC50 (HCC 2998): > 2500 nM
IC50 (L-540): > 2500 nM
IC50 (JIYOYE): > 2500 nM
IC50 (NCCIT): > 2500 nM
IC50 (EB-3): > 2500 nM

C[C@]12O[C@H](C[C@]1(O)CO)n1c3ccccc3c3c4c(c5c6ccccc6n2c5c31)CNC4=O [LESTAURTINIB]
IC50 (HOS): 232 nM
IC50 (VMRC-RCZ): 82.9 nM
IC50 (BFTC-909): 249 nM
IC50 (HuP-T4): 1330 nM
IC50 (NCI-H2170): > 2000 nM
IC50 (ACHN): 104 nM
IC50 (COLO-741): 1430 nM
IC50 (TCC-SUP): 1850 nM
IC50 (HPAF-II): > 2000 nM
IC50 (CP50-MEL-B): 632 nM
IC50 (A673): 718 nM
IC50 (NCI-H1755): 185 nM
IC50 (KYSE-270): 392 nM
IC50 (UMC-11): 1120 nM
IC50 (UACC-893): > 2000 nM
IC50 (MKN-7): 1810 nM
IC50 (T-24): > 2000 nM
IC50 (KYSE-70 cell line): > 2000 nM
IC50 (RMG-I): > 2000 nM
IC50 (KP-N-YN): 1960 nM
IC50 (NCI-H661): > 2000 nM
IC50 (Huh-7): > 2000 nM
IC50 (KYSE-140): 449 nM
IC50 (KYSE-150 cell line): 651 nM
IC50 (OE33): > 2000 nM
IC50 (HT-29): 666 nM
IC50 (PA-1): 140 nM
IC50 (UO-31): > 2000 nM
IC50 (EW-22): 862 nM
IC50 (COR-L105): > 2000 nM
IC50 (SJRH30): 1890 nM
IC50 (SW13): 617 nM
IC50 (U-118-MG): > 2000 nM
IC50 (IGR-1): 1490 nM
IC50 (DMS-273): > 2000 nM
IC50 (KOSC-2): 327 nM
IC50 (HCC 2998): 554 nM
IC50 (G-402): 1100 nM
IC50 (CAL-54): 178 nM
IC50 (CAL-51): 278 nM
IC50 (KU-19-19): 1330 nM
IC50 (CHP-212): 82.2 nM
IC50 (NCI-H1792): 880 nM
IC50 (HEC-1): 374 nM
IC50 (NCI-H2030): 1320 nM
IC50 (CAL-12T): 870 nM
IC50 (NCI-H2228): > 2000 nM
IC50 (BFTC-905): 250 nM
IC50 (PANC-03-27): 342 nM
IC50 (MHH-ES-1): 321 nM
IC50 (Calu-3): > 2000 nM
